ChEMBL document CHEMBL1201862, “PubChem BioAssay data set” (2004)
Active and inactive are the calls of the source.

Experiments:
[1] = Luminescence-based cell-based high throughput dose response assay to identify activators of the DAF-12 from the parasite S. stercoralis (ssDAF-12).; format: functional
[2] = biological target: T1, Oxysterols receptor LXR-beta (Homo sapiens, UniProt P55055); test: LXR agonists, Gal4 luciferase reporter, dose response, counter-screen for ssDAF-12 agonist project, cell-based, luminescence, HEK293, S. stercoralis campaign (AID 720737); format: functional; conditions: read-out: IC50 (the source's name)
T1 sequence (P55055 whole entry): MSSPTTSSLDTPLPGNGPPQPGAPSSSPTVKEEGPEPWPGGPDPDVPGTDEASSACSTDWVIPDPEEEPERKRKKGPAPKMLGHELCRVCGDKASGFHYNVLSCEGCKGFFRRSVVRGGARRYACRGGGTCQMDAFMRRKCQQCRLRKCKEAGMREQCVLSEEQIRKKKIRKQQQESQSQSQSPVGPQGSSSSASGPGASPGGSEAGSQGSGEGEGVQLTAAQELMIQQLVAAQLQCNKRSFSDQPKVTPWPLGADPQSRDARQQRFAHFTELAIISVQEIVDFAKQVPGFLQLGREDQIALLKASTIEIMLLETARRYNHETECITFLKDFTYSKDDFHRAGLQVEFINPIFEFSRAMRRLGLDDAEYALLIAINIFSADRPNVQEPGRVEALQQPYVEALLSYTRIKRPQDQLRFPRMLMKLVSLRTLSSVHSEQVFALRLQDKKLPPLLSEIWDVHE

[3] = biological target: 1-phosphatidylinositol 4,5-bisphosphate phosphodiesterase gamma-1 (Homo sapiens, UniProt P19174); test: Counterscreen for inhibitors of phospholipase C isozymes (PLC-B3): Fluorescence-based biochemical high throughput dose response assay to identify inhibitors of phospholipase C isozymes (PLC-gamma1).
Sequence of 1-phosphatidylinositol 4,5-bisphosphate phosphodiesterase gamma-1 (P19174 whole entry): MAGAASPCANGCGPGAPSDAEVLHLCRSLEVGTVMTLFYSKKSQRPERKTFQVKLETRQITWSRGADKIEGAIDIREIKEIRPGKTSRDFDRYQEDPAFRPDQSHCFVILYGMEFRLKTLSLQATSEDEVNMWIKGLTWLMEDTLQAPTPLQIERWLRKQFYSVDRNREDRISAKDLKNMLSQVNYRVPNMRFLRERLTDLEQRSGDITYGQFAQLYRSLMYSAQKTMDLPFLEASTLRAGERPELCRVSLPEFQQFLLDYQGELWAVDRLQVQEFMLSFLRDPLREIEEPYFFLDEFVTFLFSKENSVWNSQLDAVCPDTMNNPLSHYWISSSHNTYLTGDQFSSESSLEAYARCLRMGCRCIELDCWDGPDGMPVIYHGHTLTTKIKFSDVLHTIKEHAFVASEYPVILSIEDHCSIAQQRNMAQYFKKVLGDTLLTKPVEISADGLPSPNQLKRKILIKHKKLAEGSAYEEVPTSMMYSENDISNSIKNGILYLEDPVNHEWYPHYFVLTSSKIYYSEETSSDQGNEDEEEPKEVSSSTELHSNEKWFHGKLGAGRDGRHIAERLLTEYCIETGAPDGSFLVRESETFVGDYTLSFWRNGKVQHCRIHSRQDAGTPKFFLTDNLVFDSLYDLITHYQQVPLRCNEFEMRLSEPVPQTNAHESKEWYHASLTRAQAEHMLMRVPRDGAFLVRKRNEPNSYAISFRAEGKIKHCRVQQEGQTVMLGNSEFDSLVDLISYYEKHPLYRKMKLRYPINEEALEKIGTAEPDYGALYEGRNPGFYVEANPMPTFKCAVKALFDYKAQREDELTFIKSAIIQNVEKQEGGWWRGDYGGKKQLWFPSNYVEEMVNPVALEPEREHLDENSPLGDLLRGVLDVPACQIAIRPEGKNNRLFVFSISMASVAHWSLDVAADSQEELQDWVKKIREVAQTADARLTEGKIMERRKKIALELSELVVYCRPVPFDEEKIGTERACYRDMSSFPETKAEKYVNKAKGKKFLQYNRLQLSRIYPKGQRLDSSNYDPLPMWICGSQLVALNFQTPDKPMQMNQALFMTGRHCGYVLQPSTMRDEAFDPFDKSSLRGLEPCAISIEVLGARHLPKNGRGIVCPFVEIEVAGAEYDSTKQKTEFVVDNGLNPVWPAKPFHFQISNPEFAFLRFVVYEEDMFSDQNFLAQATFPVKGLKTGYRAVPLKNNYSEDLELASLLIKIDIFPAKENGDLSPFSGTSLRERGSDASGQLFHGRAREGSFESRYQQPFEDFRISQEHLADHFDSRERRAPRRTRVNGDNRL

[4] = biological target: 1-phosphatidylinositol 4,5-bisphosphate phosphodiesterase beta-3 (Homo sapiens, UniProt Q01970); test: Fluorescence-based biochemical high throughput dose response assay to identify inhibitors of phospholipase C isozymes (PLC-B3).
Sequence of 1-phosphatidylinositol 4,5-bisphosphate phosphodiesterase beta-3 (Q01970 whole entry): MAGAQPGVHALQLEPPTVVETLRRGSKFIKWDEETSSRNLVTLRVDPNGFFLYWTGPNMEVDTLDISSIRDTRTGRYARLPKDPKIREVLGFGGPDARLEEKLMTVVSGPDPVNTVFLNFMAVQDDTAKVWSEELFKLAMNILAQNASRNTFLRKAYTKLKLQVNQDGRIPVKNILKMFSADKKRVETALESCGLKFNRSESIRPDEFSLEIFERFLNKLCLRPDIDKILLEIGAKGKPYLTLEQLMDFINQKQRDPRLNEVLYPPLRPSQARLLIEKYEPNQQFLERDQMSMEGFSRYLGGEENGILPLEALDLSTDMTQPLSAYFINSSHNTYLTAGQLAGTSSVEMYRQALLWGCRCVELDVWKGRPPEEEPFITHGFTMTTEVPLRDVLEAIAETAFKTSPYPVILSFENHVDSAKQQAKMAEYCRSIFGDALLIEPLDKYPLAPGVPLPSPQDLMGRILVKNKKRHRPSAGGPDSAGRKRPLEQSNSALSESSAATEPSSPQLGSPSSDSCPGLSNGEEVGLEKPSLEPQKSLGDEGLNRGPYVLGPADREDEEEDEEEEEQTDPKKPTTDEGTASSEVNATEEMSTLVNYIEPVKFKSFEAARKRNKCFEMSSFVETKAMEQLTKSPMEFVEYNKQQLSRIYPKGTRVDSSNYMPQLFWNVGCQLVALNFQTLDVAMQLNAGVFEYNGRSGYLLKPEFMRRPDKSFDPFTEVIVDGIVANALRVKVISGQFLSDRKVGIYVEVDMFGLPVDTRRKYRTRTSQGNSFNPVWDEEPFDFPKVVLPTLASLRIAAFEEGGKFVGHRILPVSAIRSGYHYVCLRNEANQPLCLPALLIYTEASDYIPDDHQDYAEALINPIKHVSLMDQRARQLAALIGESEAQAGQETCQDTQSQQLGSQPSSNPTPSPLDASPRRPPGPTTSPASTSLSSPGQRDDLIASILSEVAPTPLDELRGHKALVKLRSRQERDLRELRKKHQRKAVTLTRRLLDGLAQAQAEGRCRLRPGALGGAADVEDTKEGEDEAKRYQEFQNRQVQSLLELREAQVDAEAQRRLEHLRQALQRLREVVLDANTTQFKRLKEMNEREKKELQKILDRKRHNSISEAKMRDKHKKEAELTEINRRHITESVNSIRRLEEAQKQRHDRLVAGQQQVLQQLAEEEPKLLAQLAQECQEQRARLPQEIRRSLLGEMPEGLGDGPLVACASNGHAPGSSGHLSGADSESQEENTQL

Kallikrein-7 = Kallikrein-7 (Homo sapiens, UniProt P49862); test: Fluorescence Intensity-based biochemical primary high throughput dose response assay to identify activators of kallikrein-7 (K7) zymogen.
Sequence of Kallikrein-7 (P49862 whole entry): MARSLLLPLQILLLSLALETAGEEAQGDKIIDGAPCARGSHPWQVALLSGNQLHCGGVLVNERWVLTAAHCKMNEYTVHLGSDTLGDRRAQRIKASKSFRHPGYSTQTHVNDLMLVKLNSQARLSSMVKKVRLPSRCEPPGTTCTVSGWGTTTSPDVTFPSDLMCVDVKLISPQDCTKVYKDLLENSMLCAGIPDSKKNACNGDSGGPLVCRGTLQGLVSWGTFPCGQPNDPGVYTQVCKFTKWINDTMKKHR

Transthyretin = Transthyretin (Homo sapiens, UniProt P02766); test: Luminescence-based cell-based high throughput dose response assay to identify activators of Transthyretin (TTR) transcription.; format: functional
[5] = biological target: T2, Replicative DNA helicase DnaB (Mycobacterium tuberculosis, UniProt P9WMR3); test: DnaB intein splicing inhibitors, dose response, biochemical, cell-free fluorescence (AID 449749); format: functional
T2 sequence (P9WMR3 whole entry): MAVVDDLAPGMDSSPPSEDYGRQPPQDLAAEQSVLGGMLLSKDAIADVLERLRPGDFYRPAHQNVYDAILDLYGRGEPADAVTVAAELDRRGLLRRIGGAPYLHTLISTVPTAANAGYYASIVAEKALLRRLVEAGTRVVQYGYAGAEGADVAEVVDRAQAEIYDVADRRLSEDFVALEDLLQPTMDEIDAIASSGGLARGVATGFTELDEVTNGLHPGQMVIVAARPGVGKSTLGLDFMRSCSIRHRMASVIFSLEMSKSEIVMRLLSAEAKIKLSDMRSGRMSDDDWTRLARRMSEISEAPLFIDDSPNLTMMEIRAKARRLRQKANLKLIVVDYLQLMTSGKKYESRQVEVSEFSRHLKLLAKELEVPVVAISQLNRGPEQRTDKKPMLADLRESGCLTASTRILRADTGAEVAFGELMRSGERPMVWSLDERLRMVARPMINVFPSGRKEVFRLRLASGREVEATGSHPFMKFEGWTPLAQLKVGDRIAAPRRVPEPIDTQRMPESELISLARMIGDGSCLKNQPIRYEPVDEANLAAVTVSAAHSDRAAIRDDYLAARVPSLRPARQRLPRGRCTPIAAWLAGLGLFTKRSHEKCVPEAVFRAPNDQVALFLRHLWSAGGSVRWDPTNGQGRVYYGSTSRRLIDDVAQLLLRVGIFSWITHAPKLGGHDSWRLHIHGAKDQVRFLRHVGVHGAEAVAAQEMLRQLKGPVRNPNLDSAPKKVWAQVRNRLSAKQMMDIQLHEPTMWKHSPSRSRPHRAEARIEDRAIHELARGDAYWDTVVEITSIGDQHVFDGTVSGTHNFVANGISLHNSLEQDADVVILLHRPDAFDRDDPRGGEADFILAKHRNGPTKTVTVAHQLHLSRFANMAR

Streptococcus = test: Group A Streptococcus viability loss, dose response, counter-screen for streptokinase expression inhibitor project, luminescence, BacTiterGlo (AID 1915); format: functional, organism-based; conditions: Streptococcus;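 also: potency for reduction of bacterial viability or growth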
[6] = HepG2 cell cytotoxicity, dose response, cytotoxicity control, ATP luminescence, cherry-pick, activator set 2 (AID 1053143); format: functional, cell-based
[7] = biological target: T3, Methionyl-tRNA synthetase, putative (Trypanosoma brucei brucei, UniProt Q38C91); format: functional, Trypanosoma brucei brucei strain 927/4 GUTat10.1
T3 sequence (Q38C91 whole entry): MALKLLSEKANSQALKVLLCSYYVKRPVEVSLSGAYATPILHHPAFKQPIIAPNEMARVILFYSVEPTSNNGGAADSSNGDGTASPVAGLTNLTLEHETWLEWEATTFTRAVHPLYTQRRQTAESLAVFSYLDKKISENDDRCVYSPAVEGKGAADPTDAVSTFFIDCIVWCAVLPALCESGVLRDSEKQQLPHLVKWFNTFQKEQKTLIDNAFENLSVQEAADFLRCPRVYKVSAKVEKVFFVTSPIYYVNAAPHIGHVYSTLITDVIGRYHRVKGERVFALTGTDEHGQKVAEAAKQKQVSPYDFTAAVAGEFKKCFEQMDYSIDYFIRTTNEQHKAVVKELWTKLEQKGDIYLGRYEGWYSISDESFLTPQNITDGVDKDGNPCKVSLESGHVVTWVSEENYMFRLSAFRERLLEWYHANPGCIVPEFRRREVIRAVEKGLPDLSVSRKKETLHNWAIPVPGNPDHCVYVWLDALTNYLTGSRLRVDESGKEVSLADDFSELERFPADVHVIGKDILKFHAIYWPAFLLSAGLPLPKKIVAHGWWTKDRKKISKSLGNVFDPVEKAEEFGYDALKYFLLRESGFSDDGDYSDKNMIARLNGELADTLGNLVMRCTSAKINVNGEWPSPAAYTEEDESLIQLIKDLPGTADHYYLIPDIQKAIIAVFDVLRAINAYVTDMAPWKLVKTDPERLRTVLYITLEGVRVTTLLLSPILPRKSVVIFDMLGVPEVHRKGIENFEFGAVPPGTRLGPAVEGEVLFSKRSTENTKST

Vero = test: cells; format: functional; conditions: Chlorocebus sabaeus
Protein RecA = biological target: T4, Protein RecA (Mycobacterium tuberculosis, UniProt P9WHJ3); test: Fluorescence Cell-Free Homogeneous Dose Retest to Identify Inhibitors of RecA-Intein Splicing Activity. [Related pubchem assays (depositor defined):AID2097, AID2223, AID489010, AID492950]; format: functional
T4 sequence (P9WHJ3 whole entry): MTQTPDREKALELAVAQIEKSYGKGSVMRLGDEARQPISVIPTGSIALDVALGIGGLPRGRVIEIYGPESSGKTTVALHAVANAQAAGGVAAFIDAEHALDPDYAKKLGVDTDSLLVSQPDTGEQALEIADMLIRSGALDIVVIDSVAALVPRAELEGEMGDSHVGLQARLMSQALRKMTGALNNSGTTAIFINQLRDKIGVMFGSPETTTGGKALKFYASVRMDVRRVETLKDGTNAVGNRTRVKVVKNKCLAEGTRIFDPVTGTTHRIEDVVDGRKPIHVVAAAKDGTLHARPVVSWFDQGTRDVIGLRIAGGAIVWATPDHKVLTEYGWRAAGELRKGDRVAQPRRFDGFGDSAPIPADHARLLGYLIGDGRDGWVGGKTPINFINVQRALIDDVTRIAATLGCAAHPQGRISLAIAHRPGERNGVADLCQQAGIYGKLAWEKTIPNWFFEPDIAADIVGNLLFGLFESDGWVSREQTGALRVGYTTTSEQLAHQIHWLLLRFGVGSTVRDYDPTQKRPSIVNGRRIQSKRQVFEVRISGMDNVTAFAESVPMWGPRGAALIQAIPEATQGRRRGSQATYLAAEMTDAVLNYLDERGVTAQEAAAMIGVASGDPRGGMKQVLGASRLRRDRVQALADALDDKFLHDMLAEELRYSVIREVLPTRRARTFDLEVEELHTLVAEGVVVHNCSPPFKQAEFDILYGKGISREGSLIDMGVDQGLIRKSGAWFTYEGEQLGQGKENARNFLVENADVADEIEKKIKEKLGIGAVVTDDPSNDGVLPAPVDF

[8] = biological target: T3, Methionyl-tRNA synthetase, putative; format: functional, Trypanosoma brucei brucei strain 927/4 GUTat10.1; remark: listed apart in the source
[9] = Counterscreen for inhibitors of Trypanosoma brucei methionyl tRNA synthetase (MetRS): Luminescence-based cell-based high throughput dose response assay to identify compounds that are cytotoxic to Jurkat human T lymphocyte cells.; format: functional
Streptokinase A = biological target: T5, Streptokinase A (Streptococcus pyogenes serotype M1, UniProt P10520); test: S. pyogenes streptokinase expression inhibitors, potency, dose response, plasminogen activation absorbance, OD405 (AID 1914); format: functional, Streptococcus pyogenes M1 GAS;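 also: secreted streptokinase activity via plasminogen activation per viability signal from cell pellet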
T5 sequence (P10520 whole entry): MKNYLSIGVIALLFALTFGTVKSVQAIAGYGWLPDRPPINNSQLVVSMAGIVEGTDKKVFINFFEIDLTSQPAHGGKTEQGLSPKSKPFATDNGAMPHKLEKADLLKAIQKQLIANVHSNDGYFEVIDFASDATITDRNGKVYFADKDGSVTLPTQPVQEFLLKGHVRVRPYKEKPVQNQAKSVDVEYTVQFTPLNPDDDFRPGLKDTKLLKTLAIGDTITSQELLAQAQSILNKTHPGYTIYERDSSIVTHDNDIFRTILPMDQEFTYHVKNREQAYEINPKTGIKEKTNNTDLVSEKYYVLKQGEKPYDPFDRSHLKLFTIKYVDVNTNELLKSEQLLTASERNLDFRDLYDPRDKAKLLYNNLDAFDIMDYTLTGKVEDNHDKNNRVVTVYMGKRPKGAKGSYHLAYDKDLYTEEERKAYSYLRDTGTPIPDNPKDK

[10] = system: Streptococcus sp. 'group A'; test: growth inhibition of control SK(-) GAS strain, dose response, counter-screen for streptokinase expression inhibitor project, luminescence, kanamycin, BacTiterGlo, confirmation (AID 1900); format: functional, organism-based; conditions: Streptococcus sp. 'group A'
[11] = Dose-response inhibition of insulin secretion in a rat insulinoma line at 5 mM glucose (AID 1117331); format: functional, cell-based; conditions: INS-1E
cells = format: functional, cell-based; conditions: INS-1E

Compound: Cc1ccc2nsnc2c1NC(=O)c1cccnc1Cl
- IC50 [1]: > 67.5 µM (inactive)
- EC50 [2]: > 67.5 µM (inactive)

Compound: Cc1ccccc1C(=O)NC1CCN(Cc2nnnn2C2CCCC2)CC1
- IC50 [3]: > 122 µM (inactive)
- IC50 [4]: > 122 µM (inactive)

Compound: COc1ccc(C2Nc3ccccc3C(=O)N2NS(C)(=O)=O)cc1OC (centres undefined)
- EC50 (Kallikrein-7): 38.8 µM (inactive)

Compound: Cc1cccc(NC(c2ccc(O)cc2)c2ccc3ccc(C)nc3c2O)n1 (centres undefined)
- EC50 (Transthyretin): > 167 µM (inactive)

Compound: Cc1[nH]c2ccccc2c1/C=N/Nc1nc2ccccc2[nH]1
- AC50 [5]: > 380 µM (inactive)
- EC50 (Streptococcus): 9.86 µM (active)
- AC50 [6]: 26 µM (active)
- IC50 [7]: 36.9 µM (inactive)
- CC50 (Vero): > 25 µM (active)
- EC50 (Protein RecA): 39.3 µM (active)
- IC50 [8]: 17.1 µM (inactive)
- IC50 [9]: 36.2 µM (inactive)
- EC50 (Streptokinase A): > 150 µM (not active)
- EC50 [10]: 7.74 µM (active)

Compound: CN1CCc2cc(Cl)c(O)cc2[C@H]2c3ccccc3CC[C@@H]21 [ECOPIPAM]
- IC50 [11]: 15.4 µM (inactive)
- IC50 (cells): > 33.3 µM (inactive)

Compound: CC(C)CNC(=O)CSc1nnc2ccccn12
- EC50 (Transthyretin): > 167 µM (inactive)
